Drawing on patent publication US11548893B2 (priority 2017, dated 2023), this text covers CC50 and EC50 for 16 molecules.

One data set in a line: in vitro. As to conditions: African green monkey, Cytotox CC50.
For data set [1], the system named is EBOV (mucin-deleted glycoprotein, VSV pseudotype). The experiment in a line: microbe, parasite or virus in culture. As to conditions: Zaire ebolavirus, Vero, 24 h, read-out: EC50 Pseudotype Assays EBOV. In kind it is cell-based, Zaire ebolavirus.
Data set [2] relates to SUDV (glycoprotein, VSV pseudotype). The experiment in a line: microbe, parasite or virus in culture. In kind it is cell-based, Sudan ebolavirus. As to conditions: Vesicular stomatitis virus, Vero, 24 h, read-out: EC50 Pseudotype Assays SUDV.
The subject of data set [3] is BDBV (mucin-deleted glycoprotein, VSV pseudotype). The experiment in a line: microbe, parasite or virus in culture. The data set is classed as cell-based, Bundibugyo ebolavirus. The note with it: Vesicular stomatitis virus, Vero, 24 h, read-out: EC50 Pseudotype Assays BDBV.

`CCC12CC3CC(C(=O)N4CC[C@H](N)[C@@H](F)C4)(C1)CC(c1ccccc1)(C3)C2` (mixture of isomers) [Example A24]: in the data set “in vitro”, the CC50 was determined as 11200 nM. Also, the EC50 in data set [1] came to 203 nM; in data set [2] it was 310 nM; in data set [3], 253 nM.

In the data set “in vitro”, `CCC12CC3CC(C(=O)NC4CCC5(CC4)CNC5)(C1)CC(c1ccccc1)(C3)C2` (racemic) [Example A27] yielded a CC50 of 7900 nM. The concentration for a half-maximal effect (EC50) amounted to 134 nM in data set [1], 1750 nM in data set [2] and 567 nM in data set [3].

`CCOCC12CC3CC(C(=O)N[C@H]4CC[C@@H](N)CC4)(C1)CC(c1ccccc1)(C3)C2` (mixture of isomers) [Example A29] gave a CC50 in the data set “in vitro” of 16300 nM. Moreover, the EC50 in data set [1] is 62 nM; in data set [2] it was over 1000 nM; in data set [3], 790 nM.

The molecule `CC12CC3CC(C(=O)N4CCCNCC4)(C1)CC(c1ccccc1)(C3)C2` (racemic) [Example A34] gave a CC50 in “in vitro” of 23600 nM. The 50% effective concentration (EC50) was determined as 90 nM in data set [1], 180 nM in data set [2] and 120 nM in data set [3].

Take `CCC1CNCCN1C(=O)C12CC3CC(C)(C1)CC(c1ccccc1)(C3)C2` (racemic) [Example A36]: the cytotoxic concentration (CC50) in the data set “in vitro” was 8310 nM. The EC50 in data set [1] is 171 nM; in data set [2], 130 nM; in data set [3], 229 nM.

Consider `CC1(N)CCN(C(=O)C23CC4CC(C)(C2)CC(c2ccccc2)(C4)C3)CC1` (racemic) [Example A37], for which the CC50 in the data set “in vitro” came out at 10900 nM. Moreover, the EC50 was 58 nM in data set [1], 220 nM in data set [2] and 58.7 nM in data set [3].

In “in vitro”, `CC1CN(C(=O)C23CC4CC(C)(C2)CC(c2ccccc2)(C4)C3)CCC1N` (racemic) [Example A39] yielded a CC50 of 13200 nM. Besides, the EC50 was determined as 46 nM in data set [1], 210 nM in data set [2] and 91 nM in data set [3].

As to `CC12CC3CC(C(=O)N4CCC5(CCN5)CC4)(C1)CC(c1ccccc1)(C3)C2` (racemic) [Example A51], the EC50 in data set [1] came out at 157 nM; in data set [2], 520 nM; in data set [3], 228 nM.

On to `N#CC12CC3CC(C(=O)N[C@H]4CC[C@H](N)CC4)(C1)CC(c1ccccc1)(C3)C2` (mixture of isomers) [Example A53], for which the EC50 in data set [1] is 670 nM; in data set [2], over 1000 nM; in data set [3] it was over 1000 nM.

With `c1ccc(C23CC4CC(CC(CN5CCNCC5)(C4)C2)C3)cc1` [Example A67], the EC50 in data set [1], in data set [2] and in data set [3] was over 1000 nM in each case.

With `CC1(C)CN(CC23CC4C[C@@](C)(C2)C[C@](c2ccccc2)(C4)C3)CC[C@@H]1N` [Example B70], the EC50 in data set [1] was 628 nM; in data set [2], 1020 nM; in data set [3], 930 nM.

With `CC1(C)CN(CC23CC4C[C@@](C)(C2)C[C@](c2ccccc2)(C4)C3)CC[C@H]1N` [Example B71], the EC50 was 1180 nM in data set [1], over 1000 nM in data set [2] and 1030 nM in data set [3].

In the case of `C[C@@]12CC3CC(C(=O)N4CCC(N)C5(CC5)C4)(C1)C[C@](c1ccccc1)(C3)C2` (stereo partly shown) [Example C9], the EC50 came out at 269 nM in data set [1], 620 nM in data set [2] and 150 nM in data set [3].

As for `C[C@@]12CC3CC(C(=O)N4CC5(CC(N)C5)C4)(C1)C[C@](c1ccccc1)(C3)C2` [Example C11], the values for the EC50 in data set [1], in data set [2] and in data set [3] were 576 nM, 960 nM and 315 nM, respectively.

As for `CC1(C)CN(CC23CC4C[C@](C)(C2)C[C@@](c2ccccc2)(C4)C3)CC[C@@H]1N` [Example C70], the EC50 in data set [1] was over 1000 nM; in data set [2], 1280 nM; in data set [3], 1020 nM.

In the case of `CC1(C)CN(CC23CC4C[C@](C)(C2)C[C@@](c2ccccc2)(C4)C3)CC[C@H]1N` [Example C71], the half-maximal effective concentration (EC50) in data set [1], in data set [2] and in data set [3] was over 1000 nM in each case.

By CC50 is commonly meant the concentration that lowers cell viability or growth by half. The EC50 is the concentration that produces a half-maximal response.
